Test results published in US9078868B2, “Therapeutic agent for accelerating recovery of animal under medical treatment” (UNIVERSITY OF MIYAZAKI, priority 2010, dated 2015).
No end group written: not given here. *: point of attachment. Octanoyl = CCCCCCCC(=O)*

Tested on: hospitalized animals (canines and felines) with poor physical conditions
Experiment: Example 3-1: repeated dose of ghrelin (analyzed together with single dose animals), compiled by disease group
Type: in vivo
Design: key to Degree of anger or anxiety score after administration: 1 = calm/accustomed to staff … 5 = too violent to touch, bites
Details: for BUN: animals improved/animals evaluated / Body temperature: animals improved/animals evaluated / CPK: animals improved/animals evaluated / CRE: animals improved/animals evaluated / Degree of anger: animals improved/animals evaluated / GOT: animals improved/animals evaluated / GPT: animals improved/animals evaluated / PLT: animals improved/animals evaluated / Vigor: animals improved/animals evaluated / WBC: animals improved/animals evaluated / Respiratory rate: animals improved/animals evaluated / CRP: animals improved/animals evaluated: single or repeated dose; for Respiratory rate after administration: before administration 100/min; for GPT value after administration: before administration 1000 IU/L; for Activity (vigor) score after administration / Degree of anger or anxiety score after administration: example; for Activity (vigor) score after administration: scale 1-7; for Degree of anger or anxiety score after administration: before administration a score of 5, scale 1-5
Experimental: In these Examples, a canine-derived ghrelin (a peptide compound in which a side chain hydroxyl group of the serine residue at the 3rd position from the amino terminus is acylated with an n-octanoyl group in SEQ ID NO: 1) was used as ghrelin. The canine-derived ghrelin was chemically synthesized and then lyophilized, and a canine-derived ghrelin for administration containing 0.1, 0.3, 0.5, or 1 mg per vial of a canine-derived ghrelin was prepared.
To administer ghrelin to animals, the canine-derived ghrelin was dissolved to a concentration of 1 mg/2 mL in physiological saline and intravenously, subcutaneously, or intramuscularly injected after the dose was adjusted depending on the body weight.
The evaluation parameters used were activity (vigor), body temperature, hematology parameters (blood cell test values), serum biochemistry parameters (biochemical test values), the degree of anger or anxiety, and respiratory rate. […] The degree of anger or anxiety of an animal observed visually by an observer were also evaluated using the following criteria: 1. calm and accustomed to a health care professional, 2. able to be touched by but unaccustomed to a health care professional and restless, 3. wandering around or hiding in the kennel with anxiety, 4. able to be barely touched, and 5. too violent to be touched by a health care professional and tends to bite.
A canine-derived ghrelin was repeatedly administered intravenously or subcutaneously to each of the animals with poor physical conditions. The dose of intravenous administration was approximately 5 μg/kg or 10 μg/kg, and the dose of subcutaneous administration was approximately 100 μg/kg. The mean number of doses in repeated administration was approximately four times, and the maximum number of doses was 11 times. The administration period was one to six days.
Evaluation parameters evaluated before and after administration of ghrelin were appetite, quantity of meal, biochemical test values (GOT, GPT, BUN, CRE, CPK, CRP), blood cell test values (white blood cell [WBC], platelet [PLT]), body temperature, activity (vigor), skin, coat, wellness, the degree of anger or anxiety, respiratory rate, and others. These parameters were analyzed together with the results of the animals receiving a single dose (Examples 1 and 2). The analysis results were compiled by disease, such as renal dysfunction, tumor, fracture, and accident (see Table 3-1). Statistical analysis of values before and after administration was performed using a paired t-test.

[1] = fracture, accident, etc., 19 animals
[2] = fracture, accident, etc., *p < 0.05, **p < 0.01
[3] = gastrointestinal tract disease, 7 animals
[4] = genital disease, *p < 0.05, **p < 0.01
[5] = infection or parasitism, 15 animals
[6] = infection or parasitism, *p < 0.05, **p < 0.01
[7] = inflammatory disease, 13 animals
[8] = inflammatory disease, *p < 0.05, **p < 0.01
[9] = renal dysfunction, *p < 0.05, **p < 0.01

GSS (n-octanoyl) FLSPEHQKLQQRKESKKPPAKLQPR (GSS(Octanoyl)FLSPEHQKLQQRKESKKPPAKLQPR; listed as Canis familiaris) [ghrelin, chemically synthesized, lyophilized]
BUN: animals improved/animals evaluated [1]: 6/7
Body temperature: animals improved/animals evaluated [1]: 5/7
CPK: animals improved/animals evaluated [1]: 2/2
CRE: animals improved/animals evaluated [1]: 2/3
Degree of anger: animals improved/animals evaluated [1]: 6/10
GOT: animals improved/animals evaluated [1]: 6/6
GPT: animals improved/animals evaluated [1]: 6/7
PLT: animals improved/animals evaluated [1]: 4/8
Vigor: animals improved/animals evaluated [1]: 13/16
WBC: animals improved/animals evaluated [1]: 3/7
Respiratory rate: animals improved/animals evaluated (fracture, accident, etc., 19 animals, #respiratory rate was stabilized in 2 of 2 animals): 2/2
BUN: change after vs before administration (t-test) [2]: Decreased*
Body temperature: change after vs before administration (t-test) [2]: Decreased*
CPK: change after vs before administration (t-test) [2]: Decreased*
Degree of anger: change after vs before administration (t-test) [2]: Improved*
GOT: change after vs before administration (t-test) [2]: Decreased*
GPT: change after vs before administration (t-test) [2]: Decreased*
Vigor: change after vs before administration (t-test) [2]: Improved**
BUN value after administration (fractures, accidents, etc., before administration 18.3 mg/dL): 10.6 mg/dL
Body temperature after administration (fractures, accidents, etc., before administration 39.2° C.): 38.0 °C
CPK value after administration (fractures, accidents, etc., before administration 42.4 IU/L): 9.4 IU/L
Respiratory rate after administration (fractures, accidents, etc.): 50 min⁻¹
GOT value after administration (fractures, accidents, etc., before administration 996 IU/L): 22 IU/L
GPT value after administration (fractures, accidents, etc.): 32 IU/L
Activity (vigor) score after administration (fractures, accidents, etc., before administration a score of 1): 3
Degree of anger or anxiety score after administration (fractures, accidents, etc.): 1
BUN: animals improved/animals evaluated [3]: 1/1
Body temperature: animals improved/animals evaluated [3]: 2/3
CPK: animals improved/animals evaluated [3]: 2/2
Degree of anger: animals improved/animals evaluated [3]: 0/1
GOT: animals improved/animals evaluated [3]: 3/3
GPT: animals improved/animals evaluated [3]: 3/3
PLT: animals improved/animals evaluated [3]: 0/1
Vigor: animals improved/animals evaluated [3]: 5/5
WBC: animals improved/animals evaluated [3]: 2/2
Vigor: change after vs before administration (t-test) (gastrointestinal tract disease, *p < 0.05, **p < 0.01): Improved*
Activity (vigor) score after administration (gastrointestinal tract diseases, before administration a score of 1): 5
BUN: animals improved/animals evaluated (genital disease, 29 animals): 3/3
Body temperature: animals improved/animals evaluated (genital disease, 29 animals): 11/11
CRE: animals improved/animals evaluated (genital disease, 29 animals): 1/2
CRP: animals improved/animals evaluated (genital disease, 29 animals): 5/5
Degree of anger: animals improved/animals evaluated (genital disease, 29 animals): 2/8
GOT: animals improved/animals evaluated (genital disease, 29 animals): 3/3
GPT: animals improved/animals evaluated (genital disease, 29 animals): 4/4
PLT: animals improved/animals evaluated (genital disease, 29 animals): 4/7
Respiratory rate: animals improved/animals evaluated (genital disease, 29 animals): 1/1
Vigor: animals improved/animals evaluated (genital disease, 29 animals): 13/15
WBC: animals improved/animals evaluated (genital disease, 29 animals): 5/7
BUN: change after vs before administration (t-test) [4]: Decreased*
Body temperature: change after vs before administration (t-test) [4]: Decreased**
CRP: change after vs before administration (t-test) [4]: Decreased*
Vigor: change after vs before administration (t-test) [4]: Improved**
BUN value after administration (genital diseases, before administration 31.5 mg/dL): 7.1 mg/dL
CRP value after administration (genital diseases, before administration 100 mg/dL): 16 mg/dL
Body temperature after administration (genital diseases, before administration 40.1° C.): 38.1 °C
Activity (vigor) score after administration (genital diseases, before administration a score of 1): 3
BUN: animals improved/animals evaluated [5]: 2/2
Body temperature: animals improved/animals evaluated [5]: 3/3
CPK: animals improved/animals evaluated [5]: 1/1
CRE: animals improved/animals evaluated [5]: 1/1
Degree of anger: animals improved/animals evaluated [5]: 0/2
GOT: animals improved/animals evaluated [5]: 1/2
GPT: animals improved/animals evaluated [5]: 3/4
PLT: animals improved/animals evaluated [5]: 3/4
Respiratory rate: animals improved/animals evaluated [5]: 3/3
Vigor: animals improved/animals evaluated [5]: 10/11
WBC: animals improved/animals evaluated [5]: 1/4
BUN: change after vs before administration (t-test) [6]: Decreased*
Respiratory rate: change after vs before administration (t-test) [6]: Improved*
Vigor: change after vs before administration (t-test) [6]: Improved**
BUN value after administration (infections and parasitism, before administration 23.4 mg/dL): 16.4 mg/dL
Respiratory rate after administration (infections and parasitism): 70 min⁻¹
Activity (vigor) score after administration (infections and parasitism, before administration a score of 1): 3
BUN: animals improved/animals evaluated [7]: 4/4
Body temperature: animals improved/animals evaluated [7]: 5/6
CPK: animals improved/animals evaluated [7]: 1/1
CRE: animals improved/animals evaluated [7]: 0/2
CRP: animals improved/animals evaluated [7]: 1/2
Degree of anger: animals improved/animals evaluated [7]: 2/5
GOT: animals improved/animals evaluated [7]: 3/4
GPT: animals improved/animals evaluated [7]: 4/4
PLT: animals improved/animals evaluated [7]: 2/4
Vigor: animals improved/animals evaluated [7]: 9/9
WBC: animals improved/animals evaluated [7]: 3/4
Respiratory rate: animals improved/animals evaluated (inflammatory disease, 13 animals, #respiratory rate was stabilized in 2 of 2 animals): 2/2#
BUN: change after vs before administration (t-test) [8]: Decreased*
Body temperature: change after vs before administration (t-test) [8]: Decreased*
GOT: change after vs before administration (t-test) [8]: Decreased*
GPT: change after vs before administration (t-test) [8]: Decreased*
Vigor: change after vs before administration (t-test) [8]: Improved*
BUN value after administration (inflammatory diseases, before administration 18.6 mg/dL): 10.7 mg/dL
Body temperature after administration (inflammatory diseases, before administration 39.8° C.): 38.7 °C
GOT value after administration (inflammatory diseases, before administration 149 IU/L): 25.0 IU/L
GPT value after administration (inflammatory diseases): 282 IU/L
Activity (vigor) score after administration (inflammatory diseases, before administration a score of 1): 3
BUN: animals improved/animals evaluated (renal dysfunction, 10 animals): 2/3
Body temperature: animals improved/animals evaluated (renal dysfunction, 10 animals): 2/2
CRE: animals improved/animals evaluated (renal dysfunction, 10 animals): 3/3
Degree of anger: animals improved/animals evaluated (renal dysfunction, 10 animals): 1/3
GOT: animals improved/animals evaluated (renal dysfunction, 10 animals): 0/1
GPT: animals improved/animals evaluated (renal dysfunction, 10 animals): 1/1
PLT: animals improved/animals evaluated (renal dysfunction, 10 animals): 4/5
Respiratory rate: animals improved/animals evaluated (renal dysfunction, 10 animals): 1/1
Vigor: animals improved/animals evaluated (renal dysfunction, 10 animals): 5/6
WBC: animals improved/animals evaluated (renal dysfunction, 10 animals): 5/5
CRE: change after vs before administration (t-test) [9]: Decreased*
PLT: change after vs before administration (t-test) [9]: Increased**
Vigor: change after vs before administration (t-test) [9]: Improved**
WBC: change after vs before administration (t-test) [9]: Decreased*
Serum creatinine (CRE) value after administration (renal dysfunctions, before administration 3.2 mg/dL): 1.3 mg/dL
White blood cell (WBC) count after administration (renal dysfunctions, before administration 324×10^2/μL): 13900 µL⁻¹
Activity (vigor) score after administration (renal dysfunctions, before administration a score of 2): 3
BUN: animals improved/animals evaluated (tumor, 14 animals): 2/4
Body temperature: animals improved/animals evaluated (tumor, 14 animals): 6/6
CRE: animals improved/animals evaluated (tumor, 14 animals): 2/4
CRP: animals improved/animals evaluated (tumor, 14 animals): 2/2
Degree of anger: animals improved/animals evaluated (tumor, 14 animals): 4/6
GOT: animals improved/animals evaluated (tumor, 14 animals): 3/5
GPT: animals improved/animals evaluated (tumor, 14 animals): 4/6
PLT: animals improved/animals evaluated (tumor, 14 animals): 3/6
Respiratory rate: animals improved/animals evaluated (tumor, 14 animals): 1/1
Vigor: animals improved/animals evaluated (tumor, 14 animals): 7/8
WBC: animals improved/animals evaluated (tumor, 14 animals): 3/6
Body temperature: change after vs before administration (t-test) (tumor, *p < 0.05, **p < 0.01): Decreased*
Degree of anger: change after vs before administration (t-test) (tumor, *p < 0.05, **p < 0.01): Improved*
Vigor: change after vs before administration (t-test) (tumor, *p < 0.05, **p < 0.01): Improved*
Body temperature after administration (tumors, before administration 39.8° C.): 38.6 °C
Activity (vigor) score after administration (tumors, before administration a score of 3): 6
Degree of anger or anxiety score after administration (tumors): 2
